According to US20010014357A1, “Citrus peel extract as inhibitor of ACYL coa-cholesterol-o-acyltransferase, inhibitor of macrophage-lipid complex accumulation on the arterial wall and preventive or treating agent for hepatic diseases” (priority 1997, published 2001):

Legend:
[1] = system: macrophage-lipid complex accumulated on the arterial endothelium; assay: Analysis for fatty streak (macrophage-lipid complex) in the main artery of cholesterol-fed rabbits; assay type: in vivo, New Zealand White rabbits; conditions: 1% cholesterol diet plus 0.1% flavonoid or 1 mg/kg Lovastatin; for area of macrophage-lipid complex accumulated on the arterial endothelium compared to the control group / M-L (macrophage-lipid) complex area: 6 weeks; for layer of macrophage-lipid complex observed on the arterial endothelium (FIGS. 1B-1D): control shows a thick layer; for M-L (macrophage-lipid) complex area: Oil Red O stained area as proportion of total arterial area, control group 35
Text: RC4 diet comprises 7.6% moisture, 22.8% crude protein, 2.8% crude fat, 8.8% crude ash, 14.4% crude cellulose and 43.6% soluble nitrogen-free substances. The rabbits were bred for 6 weeks while being allowed free access to the diets and water. The rabbits bred in (Step 1) were sacrificed and their chest were incised. The main artery was cut out therefrom in a length of about 5 cm downward from the site 1 cm above the aortic valve and the fat surrounding the main artery was removed. The main artery was incised in the middle along the longitudinal axis and pinned to a dish. The moist artery was photographed and, then, staining of fatty streak was carried out in accordance with the method of […]., et al.(J. Lab. Clin. […] A part of the incised main artery was washed three times by 2 min. with anhydrous propylene glycol and stained for 30 min. with a saturated solution of Oil Red O (ORO, Sigma Co.) dissolved in propylene glycol. Thereafter, the artery was washed twice by 3 min. with 85% propylene glycol to remove remaining staining solution and, then washed with physical saline. The artery was photographed and the photograph was traced. The area of stained region (fatty streak region) was determined with an image analyzer (LEICA, Q-600, Germany) and its proportion(%) to the total arterial area was calculated. On the other hand, the other part of the main artery was stained in accordance with hematoxylin-eosin (H&E) and Masson's trichrome staining methods and observed under a microscope to confirm whether the macrophage-lipid complexes were accumulated in the intima, internus, elastic lamina and media.

[2] = system: hepatic cells (fatty liver); assay: Histopathological observation of the livers of cholesterol-fed rabbits; assay type: in vivo, New Zealand White rabbits; conditions: 1% cholesterol diet plus 0.1% flavonoid or 1 mg/kg Lovastatin, eight weeks, H&E stain
Method: The same procedure as in (Step 1) was repeated except that 40 three-month-old New Zealand White rabbits (Yeonam Horticulture and Animal Husbandry College, Korea) each weighing about 2.5 to 2.6 kg were used in place of the rats, and the rabbits were fed for eight weeks with four different diets, i.e., RC4 diet containing 1% cholesterol (Control group); 1% cholesterol plus 1 mg/kg Lovastatin® (Comparative group); 1% cholesterol plus 0.1% hesperidin; and 1% cholesterol plus 0.1% naringin, respectively.
Thereafter, the livers were separated from the rabbits and the histopathological observations were carried out as follows.
The rabbits were anesthetized with an intramuscular injection of ketamine (75 mg/kg) and subjected to an abdominal incision. […] The fixed liver was washed sufficiently with water, dehydrated stepwise with 70%, 80%, 90% and 100% ethanol and, then, embedded in paraffin. The embedded liver was sectioned in 4 μm thickness with a microtome and stained with hematoxylin and eosin. The stained liver specimen was made transparent with xylene, mounted with permount, and then observed under a microscope to confirm the presence of lesions.

[3] = Blood total cholesterol and triglyceride levels in cholesterol-fed rabbits; assay type: in vivo, New Zealand White rabbits; conditions: 1% cholesterol diet plus 0.1% flavonoid or 1 mg/kg Lovastatin, 6 weeks
Method: RC4 diet comprises 7.6% moisture, 22.8% crude protein, 2.8% crude fat, 8.8% crude ash, 14.4% crude cellulose and 43.6% soluble nitrogen-free substances. The rabbits were bred for 6 weeks while being allowed free access to the diets and water. Further, blood samples were taken from the rabbits and total cholesterol and triglyceride levels were determined in accordance with the same procedure in Example 5.

[4] = Serum GOT, GPT and γGTP levels in men given oral naringin; assay type: in vivo, human; conditions: person, oral 10 mg/kg daily, day 68
Method: Naringin was orally administered to a person at a daily dose of 10 mg/kg for 68 days and serum GOT, GPT and γGTP levels were determined just before the administration (day 0), and 45 and 68 days after the administration (day 45 and day 68), respectively. Consequently, serum GOT- levels at day 45 and day 68 decreased by 17%, respectively, in comparison to that of day 0. Serum GPT levels at day 45 and day 68 decreased by 15% and 19%, respectively, in comparison to that of day 0. Further, serum γGTP levels at day 45 and day 68 decreased by 25% and 51%, respectively, in comparison to that of day 0.
On the other hand, naringin was orally administered to a person, who had drunk alcoholic beverages habitually in an amount of 100 cc per day, at a daily dose of 6 mg/kg for 30 days and serum γGTP level was determined just before the administration (day 0) and 30 days after the administration (day 30). Consequently, initial serum γGTP level at day 0 was 129 IU/l, while that of day 30 decreased to 69 IU/l which is within the normal range.

[5] = Serum GOT and GPT levels in rats on a high-cholesterol diet; assay type: in vivo, Sprague-Dawley rats; conditions: 1% cholesterol diet plus 0.02% naringin or citrus peel extract (0.04% hesperidin equivalent), six weeks
Text: 30 four-week-old Sprague-Dawley rats (Taihan laboratory animal center, Korea) each weighing about 90 to 110 g were evenly divided into three dietary groups by a randomized block design. The rats of the three groups were fed with three different high-cholesterol diets, i.e., AIN-76 laboratory animal diet (ICN Biochemicals, Cleveland, Ohio, U.S.A.) containing 1% cholesterol(Control group), 1% cholesterol plus 0.02% naringin, and 1% cholesterol plus citrus peel extract prepared in Example 2(1) in an amount equivalent to 0.04% hesperidin, respectively.
The effect of administering naringin and citrus peel extract to rats on the function of the liver was examined as follows.
Blood samples were taken from the rats of the three dietary groups and serum GOT (glutamate-oxaloacetate transaminase) and GPT (glutamate-pyruvate transaminase) levels were determined in accordance with the method of Reitman and Frankel (Reitman, S. and J. S. Frankel, Am. J. Clin. Pathol., 28, 56 (1956)). GOT and GPT are synthesized in the liver and heart, and released into blood stream upon the damage of these organs. Accordingly, GOT and GPT are representative markers of the liver-function and high serum GOT and GPT levels mean severe damage of the liver.

Compound | area of macrophage-lipid complex accumulated on the arterial endothelium compared to the control group [1] | layer of macrophage-lipid complex observed on the arterial endothelium (FIGS. 1B-1D) [1] | microscopic features of the hepatic cells (FIGS. 2B-2D) [2] | Total cholesterol [3] [mg/dL] | Triglyceride [3] [mg/dL] | M-L (macrophage-lipid) complex area [1] [%] | decrease of serum γGTP level in comparison to day 0 [4] [%] | serum GOT level, lower than that of the control group [5] | serum GPT level, lower than that of the control group [5] [%]
CC[C@H](C)C(=O)O[C@H]1C[C@@H](C)C=C2C=C[C@H](C)[C@H](CC[C@@H]3C[C@@H](O)CC(=O)O3)[C@H]21 [Lovastatin, reference compound] | decreased significantly | no or very thin layers | irregularly arranged and enlarged and a large amount of fat is deposited therein |  |  |  |  |  | 
COc1ccc([C@@H]2CC(=O)c3c(O)cc(O)cc3O2)cc1O [hesperetin] | decreased significantly |  |  | 1150 | 41 | 13 |  |  | 
O=C1C[C@@H](c2ccc(O)cc2)Oc2cc(O)cc(O)c21 [naringenin] | decreased significantly |  |  |  |  |  |  |  | 
COc1ccc([C@@H]2CC(=O)c3c(O)cc(O[C@@H]4O[C@H](CO[C@@H]5O[C@@H](C)[C@H](O)[C@@H](O)[C@H]5O)[C@@H](O)[C@H](O)[C@H]4O)cc3O2)cc1O [hesperidin] | decreased significantly | no or very thin layers | normal and the deposition of fat is not observed | 1130 | 40 | 13.5 |  |  | 
C[C@@H]1O[C@@H](O[C@H]2[C@H](Oc3cc(O)c4c(c3)O[C@H](c3ccc(O)cc3)CC4=O)O[C@H](CO)[C@@H](O)[C@@H]2O)[C@H](O)[C@H](O)[C@H]1O [naringin] | decreased significantly | no or very thin layers | normal and the deposition of fat is not observed |  |  |  | 51 | about 30% | ~10
